The solubility is the concentration that dissolves in the medium under given conditions. A higher solubility goes with much dissolved substance. One may read the EC50 as the midpoint of the concentration-response curve. The IC50 is the point on the concentration scale where inhibition reaches its midpoint.

Numbered stars: 1 amine (or outer) side, 2 acyl side, 3 side chain; on linkers, the order of the positions; unused ones are H or OH. Peptide text beside a SMILES is read from it. * marks the point of attachment. C20 diacid = O=C(O)CCCCCCCCCCCCCCCCCCC(=O)*; γGlu = O=C(O)[C@H](CCC(=O)[*:2])N[*:1]; AEEA = NCCOCCOCC(=O)O A value given as a limit tells only on which side of the number the result lay.

The source of these data is ChEMBL document CHEMBL4420076, “Amylin and calcitonin receptor agonist” (2017).

Series [1] is described as follows: Solubility in 100 mM bistrispropane buffer at pH 7.0 incubated for 18 hrs by UPLC analysis. The format is physicochemical.
A short description of series [2]: Solubility in 100 mM bistrispropane buffer at pH 8.0 incubated for 18 hrs by UPLC analysis. Format: physicochemical.
In series [3] the target is T1, Calcitonin receptor (Homo sapiens, UniProt P30988).
T1 sequence (P30988 whole entry): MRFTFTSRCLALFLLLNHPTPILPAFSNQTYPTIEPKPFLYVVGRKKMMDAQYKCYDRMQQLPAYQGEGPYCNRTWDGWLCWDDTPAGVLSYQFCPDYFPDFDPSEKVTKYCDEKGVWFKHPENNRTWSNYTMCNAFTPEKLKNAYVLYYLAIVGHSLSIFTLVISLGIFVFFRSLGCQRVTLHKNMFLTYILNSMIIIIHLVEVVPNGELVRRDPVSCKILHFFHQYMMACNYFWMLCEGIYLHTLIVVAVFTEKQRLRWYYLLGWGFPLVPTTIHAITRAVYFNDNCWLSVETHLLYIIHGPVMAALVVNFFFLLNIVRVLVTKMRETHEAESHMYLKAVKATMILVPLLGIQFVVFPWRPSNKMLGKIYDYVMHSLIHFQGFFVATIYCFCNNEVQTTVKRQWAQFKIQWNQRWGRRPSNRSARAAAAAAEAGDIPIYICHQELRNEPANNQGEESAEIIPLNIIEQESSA
In words: Agonist activity at human calcitonin receptor expressed in BHK570 cells assessed as increase in intracellular cAMP concentration incubated for 3 hrs in absence of albumin by CRE luciferase reporter gene assay. Format: functional, cell-based. (In general: A reporter such as luciferase makes a cellular process visible.)

A short description of series [4]: Solubility in 100 mM glycylglycine buffer at pH 5.0 incubated for 18 hrs by UPLC analysis. Format: physicochemical.
Series [5] is described as follows: Solubility in 100 mM bistrispropane buffer at pH 6.0 incubated for 18 hrs by UPLC analysis. Format: physicochemical.
Series [6] deals with T2, Amylin receptor AMY3; CALCR/RAMP3 (Homo sapiens, UniProt O60896+P30988).
T2 sequence (P30988 whole entry): T1 sequence (P30988 whole entry)
T2 sequence (O60896 whole entry): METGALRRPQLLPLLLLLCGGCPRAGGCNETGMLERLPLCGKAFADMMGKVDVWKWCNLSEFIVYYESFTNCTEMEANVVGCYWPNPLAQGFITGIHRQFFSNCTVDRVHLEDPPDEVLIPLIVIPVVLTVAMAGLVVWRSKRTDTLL
In words: Agonist activity at human amylin receptor expressed in BHK570 cells co-expressing RAMP3 assessed as increase in intracellular cAMP concentration incubated for 3 hrs in presence of 10% FBS by CRE luciferase reporter gene assay. The format is functional, cell-based.

In series [7] the target is T1, Calcitonin receptor. In words: Agonist activity at human calcitonin receptor expressed in BHK570 cells assessed as increase in intracellular cAMP concentration incubated for 3 hrs in presence of 10% FBS by CRE luciferase reporter gene assay. The format is functional, cell-based.
The nature of series [8]: Solubility in 100 mM glycylglycine buffer at pH 4.0 incubated for 18 hrs by UPLC analysis. The format is physicochemical.
Series [9] can be described thus: Stability in pH 7.5 buffer assessed as lag time for fibril formation at 1 uM by Thioflavin T based fluorescence assay. The format is physicochemical. To be noted: pH 7.5, 1 µM.
Series [10] is described as follows: Solubility in 100 mM bistrispropane buffer at pH 7.5 incubated for 18 hrs by UPLC analysis. Format: physicochemical.
Series [11] can be described thus: Stability in pH 7.5 buffer assessed as compound recovery at 1 uM by Thioflavin T based fluorescence assay. The format is physicochemical. To be noted: read-out: Drug recovery.
Series [12] in a line: Solubility in 100 mM bistrispropane buffer at pH 6.5 incubated for 18 hrs by UPLC analysis. Format: physicochemical.
Series [13] is described as follows: Solubility in 100 mM glycylglycine buffer at pH 3.0 incubated for 18 hrs by UPLC analysis. Format: physicochemical.
Series [14] deals with T2, Amylin receptor AMY3; CALCR/RAMP3. In words: Agonist activity at human amylin receptor expressed in BHK570 cells co-expressing RAMP3 assessed as increase in intracellular cAMP concentration incubated for 3 hrs in absence of albumin by CRE luciferase reporter gene assay. The format is functional, cell-based.
Series [15] shares this target. In words: Displacement of [125I]-labeled rat amylin from human amylin receptor expressed in BHK tkts13 whole cells co-expressing RAMP3 incubated for 60 mins by scintillation proximity assay. Format: cell-based. In general terms: Loss of bound radioactivity is the signal in a displacement assay; it reports binding, not function.

As for `CC(C)C[C@H](NC(=O)[C@H](C)NC(=O)[C@H](C)NC(=O)[C@@H](NC(=O)[C@H](CO)NC(=O)[C@H](CC(C)C)NC(=O)[C@H](CCC(=O)O)NC(=O)[C@H](CO)NC(=O)[C@H](C)NC(=O)COCCOCCNC(=O)COCCOCCNC(=O)COCCOCCNC(=O)COCCOCCNC(=O)CC[C@H](NC(=O)CCCCCCCCCCCCCCCCCCC(=O)O)C(=O)O)[C@@H](C)O)C(=O)NCC(=O)N[C@@H](CCCNC(=N)N)C(=O)N[C@@H](CC(C)C)C(=O)N[C@@H](CO)C(=O)N[C@@H](C)C(=O)N[C@@H](CCC(=O)O)C(=O)N[C@@H](CC(C)C)C(=O)N[C@@H](Cc1cnc[nH]1)C(=O)N[C@@H](CCC(=O)O)C(=O)N[C@@H](CC(C)C)C(=O)N[C@@H](C)C(=O)N[C@H](C(=O)N[C@@H](CC(C)C)C(=O)N1CCC[C@H]1C(=O)N[C@@H](CCCNC(=N)N)C(=O)N[C@H](C(=O)N[C@@H](CCC(=O)O)C(=O)N[C@H](C(=O)NCC(=O)N[C@@H](CO)C(=O)NCC(=O)N[C@@H](CO)C(=O)N1CCC[C@H]1C(N)=O)[C@@H](C)O)[C@@H](C)O)[C@@H](C)O` ({C20 diacid-γGlu-AEEA-AEEA-AEEA-AEEA}-ASELSTAALGRLSAELHELATLPRTETGSGSP-NH2), the solubility at 18 h in [1], in series [2], in [4], in [5], in series [8] and in series [10] was at least 200 µM in each case. In addition, the solubility at 18 h in series [12] and in [13] was at least 200 µM each time. For the same molecule, the results for the EC50 (at Calcitonin receptor [3]; in series [6]; on Calcitonin receptor [7]) were 0.013 nM, 0.062 nM and 0.025 nM, respectively. The Time in [9] was over 45 h. Also, the remaining at 1 µM in series [11] is 100%.

In the case of `CC(C)C[C@H](NC(=O)[C@H](C)NC(=O)[C@H](C)NC(=O)[C@@H](NC(=O)[C@H](CO)NC(=O)[C@H](CC(C)C)NC(=O)[C@H](CCC(=O)O)NC(=O)[C@H](CO)NC(=O)[C@H](C)NC(=O)CC[C@H](NC(=O)CCCCCCCCCCCCCCCCCCC(=O)O)C(=O)O)[C@@H](C)O)C(=O)NCC(=O)N[C@@H](CCCNC(=N)N)C(=O)N[C@@H](CC(C)C)C(=O)N[C@@H](CO)C(=O)N[C@@H](C)C(=O)N[C@@H](CCC(=O)O)C(=O)N[C@@H](CC(C)C)C(=O)N[C@@H](Cc1cnc[nH]1)C(=O)N[C@@H](CCC(=O)O)C(=O)N[C@@H](CC(C)C)C(=O)N[C@@H](C)C(=O)N[C@H](C(=O)N[C@@H](CC(C)C)C(=O)N1CCC[C@H]1C(=O)N[C@@H](CCCNC(=N)N)C(=O)N[C@H](C(=O)N[C@@H](CCC(=O)O)C(=O)N[C@H](C(=O)NCC(=O)N[C@@H](CO)C(=O)NCC(=O)N[C@@H](CO)C(=O)N[C@@H](C)C(N)=O)[C@@H](C)O)[C@@H](C)O)[C@@H](C)O` ({C20 diacid-γGlu}-ASELSTAALGRLSAELHELATLPRTETGSGSA-NH2), the solubility at 18 h in series [1], in series [2], in series [4], in [5], in series [8] and in series [10] was at least 200 µM each time. Further, the solubility at 18 h in [12] and in series [13] was at least 200 µM each time. The values for the EC50 (in series [14]; on Calcitonin receptor [3]; on Calcitonin receptor [7]) were 0.067 nM, 0.04 nM and 0.102 nM, respectively. Also, the IC50 in series [15] was 1.89 nM. For the same molecule, in series [9], the Time was over 45 h. Moreover, the remaining at 1 µM in [11] was 100%.

Consider `CC(C)C[C@H](NC(=O)[C@H](C)NC(=O)[C@H](C)NC(=O)[C@@H](NC(=O)[C@H](CO)NC(=O)[C@H](CC(C)C)NC(=O)[C@H](CCC(=O)O)NC(=O)[C@H](CO)NC(=O)[C@H](C)NC(=O)CC[C@H](NC(=O)CCCCCCCCCCCCCCCCCCC(=O)O)C(=O)O)[C@@H](C)O)C(=O)NCC(=O)N[C@@H](CCCNC(=N)N)C(=O)N[C@@H](CC(C)C)C(=O)N[C@@H](CO)C(=O)N[C@@H](C)C(=O)N[C@@H](CCC(=O)O)C(=O)N[C@@H](CC(C)C)C(=O)N[C@@H](Cc1cnc[nH]1)C(=O)N[C@@H](CCC(=O)O)C(=O)N[C@@H](CC(C)C)C(=O)N[C@@H](C)C(=O)N[C@H](C(=O)N[C@@H](CC(C)C)C(=O)N1CCC[C@H]1C(=O)N[C@@H](CCCNC(=N)N)C(=O)N[C@H](C(=O)N[C@@H](CCC(=O)O)C(=O)N[C@H](C(=O)NCC(=O)N[C@@H](CO)C(=O)NCC(=O)N[C@@H](CO)C(=O)N[C@@H](CO)C(N)=O)[C@@H](C)O)[C@@H](C)O)[C@@H](C)O` ({C20 diacid-γGlu}-ASELSTAALGRLSAELHELATLPRTETGSGSS-NH2), for which the solubility at 18 h in series [1], in [2], in series [4], in [5], in series [8] and in series [10] was at least 200 µM each time. For the same molecule, the solubility at 18 h in [12] and in series [13] was at least 200 µM each time. Also, the results for the EC50 (in series [14]; at Calcitonin receptor [3]; at Calcitonin receptor [7]) were 0.063 nM, 0.038 nM and 0.154 nM, respectively. Also, the IC50 in [15] is 4.07 nM. In series [9], the Time is over 45 h. Further, the remaining at 1 µM in series [11] was found to be 100%.

Regarding `CC(C)C[C@H](NC(=O)[C@H](CCCNC(=N)N)NC(=O)CNC(=O)[C@H](CC(C)C)NC(=O)[C@@H](NC(=O)[C@H](C)NC(=O)[C@@H](NC(=O)[C@H](CO)NC(=O)[C@H](CC(C)C)NC(=O)[C@H](CCC(N)=O)NC(=O)[C@H](CO)NC(=O)[C@H](C)NC(=O)CC[C@H](NC(=O)CCCCCCCCCCCCCCCCCCC(=O)O)C(=O)O)[C@@H](C)O)C(C)C)C(=O)N[C@@H](CO)C(=O)N[C@@H](CCC(N)=O)C(=O)N[C@@H](CCC(=O)O)C(=O)N[C@@H](CC(C)C)C(=O)N[C@@H](Cc1cnc[nH]1)C(=O)N[C@@H](CCC(=O)O)C(=O)N[C@@H](CC(C)C)C(=O)N[C@@H](CCC(N)=O)C(=O)N[C@H](C(=O)N[C@@H](Cc1ccc(O)cc1)C(=O)N1CCC[C@H]1C(=O)N[C@@H](CCCNC(=N)N)C(=O)N[C@H](C(=O)N[C@@H](CCC(=O)O)C(=O)N[C@H](C(=O)NCC(=O)N[C@@H](CO)C(=O)N[C@@H](CCC(N)=O)C(=O)N[C@H](C(=O)N[C@@H](Cc1ccc(O)cc1)C(N)=O)[C@@H](C)O)[C@@H](C)O)[C@@H](C)O)[C@@H](C)O` ({C20 diacid-γGlu}-ASQLSTAVLGRLSQELHELQTYPRTETGSQTY-NH2), the solubility at 18 h in series [1], in series [2], in [5], in series [8], in series [10] and in [12] was at least 200 µM in each case. For the same molecule, in [13], the solubility at 18 h is at least 200 µM. The EC50 was 0.062 nM in [14], 0.067 nM in series [6] and 0.036 nM at Calcitonin receptor [7]. The Time in series [9] worked out at 1 h. In addition, in [11], the remaining at 1 µM came to 16%.
